Assay results published in patent publication US6531462B2, “Medicament for treating obesity and improving lipid metabolism” (priority 1997, dated 2003).
Marks after values point to notes of the source that are not given here.

What was measured:
[1] = Example 3: general conditions and weight of organs; format: in vivo, CDF1 male mice
From the text: (§1) 5Sitosten-3-one was synthesized from β-sitosterol (Tokyo Chemical Industry Co., Ltd.) according to the method of Parish (Parish, E. J., et al., Synthetic Communication, 22, pp.2839-2847, 1992), and purified by silica gel column chromatography and recrystallization. The content ratio of 24-ethyl isomer and 24-methyl compounds in the synthesized product was 6.5:3.5. As experimental animals, thirty 4-week old CDF1 male mice were purchased from Charles River Japan Inc. and divided into five experimental groups each composed of six mice. The test compounds were administered as the admixture in feeds, and the following groups were provided: (1) 0.1% addition, (2) 0.3% addition, (3) 0.5% addition, (4) a lipid-free feed without the addition of the test compound, and (5) control group without the addition of the test compound. A purified feed (modified AIN, Oriental Yeast Co.) was used as a basic feed, and supplemented with 10% soybean oil (Wako Pure Chemical Industries Co., Ltd.) to prepare solid feeds with or without the addition of the test compound. The lipid-free feed, per se, was processed to obtain solid feed. The animals were fed for a week with the feed for the control without the addition of test compound for acclimatization, and then the animals were allowed to feed with the respective feed ad libitum.
(§2) Each group of animals was housed in an aluminum cages of 22×33×11(h)cm (6 mice per a cage), and feedings were carried out at a temperature of 24±1° C. and a relative humidity of 55±5%, where light and darkness were controlled change every 12 hours. Measurements of body weights and feed intakes, and observations of general conditions were conducted three times a week. After the feeding for 3 week with the test feeds, the animals were subjected to autopsy and their bloods were collected. As serum lipid analyses, triglyceride, phospholipid, free fatty acid, total cholesterol, and HDL-cholesterol were measured by using a clinical test kit (Wako Pure Chemicals Industries Co., Ltd. ). Significances of the resulting values were examined by the variance analysis for the groups treated with the medicament, or by the t-test for the lipid-free feed group.

[2] = Example 1: serum lipids and serum metabolites of mice fed feed supplemented with 0.5% test compound; format: in vivo; conditions: for Serum metabolite: metabolite of the test compound detected in serum; for Serum metabolite / Serum cholesterol / Serum neutral fats: CDF1 mice; for Serum cholesterol / Serum neutral fats: ratio relative to the non-treated control group
Procedure: (§3) 5-Sitosten-3-one was prepared according to the method of Parish (Parish, E. J., et al., Synthetic Communication, 22, pp.2839-2847, 1992) by using β-sitosterol (Tokyo Chemical Industry Co., Ltd.) as a starting material and used in the experiments. The content ratio of 24-ethyl and 24-methyl compounds in the synthesized product was 6.5:3.5. As experimental animals, six CDF1 male mice (5-week old, Charles River Japan Inc.) were used in each experimental group. The animals were fed in aluminum cages for mice, and allowed to feed and water ad libitum. The animals were fed for 2 weeks under feeding conditions at a temperature of 24±1° C. and a relative humidity of 55±5%, where light and darkness were controlled to change every 12 hours, and each cage and floor mat (white flakes) were exchanged twice a week.
(§4) Modified AIN (Oriental Yeast Co.) was used as basic feed and mixed with 0.5% 5-sitosten-3-one to prepare test feeds. A feed used as a positive control was prepared by adding 0.5% of 4-cholesten-3-one (Japanese Patent Unexamined Publication No. Hei 5-170651/1993) to the basic feed. Non-treated mice as a control were fed solely with the basic feed. The basic feed was composed of 22.8% crude protein, 54.1% carbohydrates, 6.0% lipids, 4.9% fibers, 2.9% ash, and 8.7% water, and its calorie was 1,523 kJ. The feed was stored at 4° C. after preparation, and a fresh feed was supplied every day.
(§5) The animals were weighed at given intervals of time, and the average values and standard errors of the experimental groups were determined. In addition, feed consumptions were measured at given intervals of time and daily averages per mouse were determined. The animals were observed every day. After the end of the feeding, the animals were anesthetized to death with carbon dioxide gas, and bloods were collected from the vena cava to obtain serums. The animals were autopsied, and the brains, lungs, hearts, livers, spleens, kidneys, testis, adrenals and intraperitoneal fat were examined by the naked eye and weighed. As to serum lipid, neutral fats were measured by using a clinical test kit based on the enzyme method (Triglyceride-E Test, Wako Pure Chemicals Industries Co., Ltd.), and total cholesterol and cholestanol were measured by the method of Kasama (T. Kasama, et al., J. Chromatogr., 400, 241, 1987) with modifications, where the amount of benzoyl chloride was increased by 10 times, the reaction time was doubled, and the measurement was performed by using a high performance liquid chromatography system. Significant differences were determined by t-test for body weights and serum lipids on the basis of the non-treated control mice.

[3] = Example 3: dose response of 5-sitosten-3-one on body weight, feed intake, feed efficiency and intraperitoneal fat; format: in vivo, CDF1 male mice; conditions: for Intraperitoneal fat: 3 weeks, mean (n=6) ± standard error; for Body weight gain: total throughout the experimental period
From the text: as §1, §2

[4] = Example 1: general conditions and autopsical finding; format: in vivo, CDF1 male mice; conditions: 0.5% in feed, 2 weeks
Procedure: as §3, §4, §5

[5] = Example 3: dose response of 5-sitosten-3-one on serum lipids; format: in vivo, CDF1 male mice; conditions: for Free fatty acid / HDL-cholesterol / Phospholipid / Total cholesterol / Triglyceride: 3 weeks, mean (n=6) ± standard error
From the text: as §1, §2

[6] = Feeding of rats with feed with 0.5% addition for 4 weeks (organ changes); format: in vivo; conditions: Fischer F344 rats
From the text: The changes observed in the livers, pancreases, kidneys, and lungs in the groups treated with the medicament were commonly observed in the lipid-free feed group, although the degrees were different. In the lipid-free feed group, absolute weight and relative weight of livers increased by 4% and 6%, respectively, and absolute weight and relative weight of kidneys decreased by 12% and 11%, respectively. […] These changes were not observed when Fischer F344 rats were fed with the feed with 0.5% addition for 4 weeks, and therefore, the changes were considered as unique to CDF1 mice.

[7] = Example 1: body weight, body fat and feed intake of mice fed feed supplemented with 0.5% test compound; format: in vivo, CDF1 male mice; conditions: for Body weight gain / Intraperitoneal fat: ratio relative to the non-treated control group, CDF1 mice
Procedure: as §3, §4, §5

[8] = Example 4: body weight and body fat of mice fed 0.5% test compound for 14 days; format: in vivo, CDF1 male mice; conditions: 0.5% in feed, mean (n=6) ± standard error
Procedure: (§6) 5-Campesten-3-one was prepared from campesterol (>97%, Tama Biochemical Industry, Ltd.). 4-Sitosten-3,6-dione was prepared from β-sitosterol (>65%, Tokyo Chemical Industry Co., Ltd.) and obtained as a mixture of 24-ethyl compound and 24-methyl compound (2:1). 5-Stigmasten-3-one was prepared from stigmasterol (>94%, Tokyo Chemical Industry, Co., Ltd.). As experimental animals, six CDF1 male mice (5-week old, Charles River Japan Inc.) were used in each experimental group. Modified AIN (Oriental Yeast Co.) was used as basic feed and mixed with 0.5% of each test compound to prepare test feeds. The animals were allowed to feed with the test food ad libitum for 14 days. Measurements of body weights and observations of general conditions of the animals were carried out twice a week, and the animals were subjected to autopsy and their bloods were collected. Serum lipid analysis was conducted by using a clinical test kit based on the enzymatic method (Wako Pure Chemicals Industries Co., Ltd.). Significances of the resulting values were examined by the one-way analysis of variance with pairwise comparison (ANOVA) according to the Bonferroni method. Other conditions were the same as those described in Example 1.

[9] = Example 4: serum lipid concentration of mice fed 0.5% test compound for 14 days; format: in vivo, CDF1 male mice; conditions: 0.5% in feed
Procedure: as §6

Compound: 5-sitosten-3-one (24-ethylcholest-5-en-3-one)
- Liver weight difference ([1]; 0.1% addition group): no significant difference
- Absolute weights of pancreas ([1]; 0.1-0.5% addition groups): decreased in proportion to the amount of the medicament
- Changes in relative weight of pancreas ([1]; 0.1-0.5% addition groups): not significant
- Decrease of absolute weight of kidney ([1]; 0.3% addition group): 17%
- Decrease of relative weight of kidney ([1]; 0.3% addition group): 10%
- Increase of relative weight of livers ([1]; 0.3% addition group): 17%
- Absolute weight of lungs and spleens ([1]; 0.5% addition group): Decreases
- Decrease of absolute weight of kidney ([1]; 0.5% addition group): 32%
- Decrease of relative weight of kidney ([1]; 0.5% addition group): 17%
- Increase of absolute weight of livers ([1]; 0.5% addition group): 15%
- Increase of relative weight of livers ([1]; 0.5% addition group): 40%
- Relative weights of lungs and spleens ([1]; 0.5% addition group): not different from those of the control group
- General conditions (appearance, properties of feces, breath and behavior) ([1]; each experimental group, except for changes in body weight): No abnormality
- Histopathological change ([1]; organs of treated CDF1 mice): absence of any histopathological change
- Cholestanol (serum), mean ± standard error ([2]; 0.5% in feed, 2 weeks, n=6): 0 mg/dL
- Neutral fats (serum), mean ± standard error ([2]; 0.5% in feed, 2 weeks, n=6): 56.5 ± 8.2 mg/dL
- Total cholesterol (serum), mean ± standard error ([2]; 0.5% in feed, 2 weeks, n=6): 81.3 ± 3.0 mg/dL
- Serum metabolite [2]: 0
- Serum metabolite ([2]; listed as 5-sitosten-3-one): no cholestanol and other metabolites were detected
- Serum cholesterol [2]: 51%
- Serum neutral fats [2]: 15%
- Amount of intraperitoneal fat relative to the control group ([3]; 0.1% addition group): 83%
- Feed efficiency (body weight gain/feed intake) ([3]; 0.1% addition to feed): 0.079
- Intraperitoneal fat ([3]; 0.1% addition to feed): 996.0 ± 53.5 mg
- Body weight gain ([3]; 0.1% addition to feed): 4.89 g/mouse
- Changes in body weight (FIG. 4) ([3]; 0.1%, 0.3% and 0.5% addition, dose-dependent): body weight decreases were observed
- Amount of intraperitoneal fat relative to the control group ([3]; 0.3% addition group): 63%
- Feed efficiency (body weight gain/feed intake) ([3]; 0.3% addition to feed): 0.062
- Intraperitoneal fat ([3]; 0.3% addition to feed): 760.7 ± 36.9 mg
- Body weight gain ([3]; 0.3% addition to feed): 3.62 g/mouse
- Amount of intraperitoneal fat relative to the control group ([3]; 0.5% addition group): 42%
- Decrease of feed efficiency compared to the control group ([3]; 0.5% addition group): about 80%
- Feed efficiency (body weight gain/feed intake) ([3]; 0.5% addition to feed): 0.016
- Intraperitoneal fat ([3]; 0.5% addition to feed): 500.6 ± 79.2 mg
- Body weight gain ([3]; 0.5% addition to feed): 0.84 g/mouse
- General conditions [4]: normal
- Kidney weight at autopsy [4]: slight weight decrease
- Pathological abnormality in the other organs and tissues ([4]; autopsy): No pathological abnormality
- Free fatty acid ([5]; 0.1% addition to feed): 1.41 ± 0.04 mEq/dl
- HDL-cholesterol ([5]; 0.1% addition to feed): 68.7 ± 13.6 mg/dL
- Phospholipid ([5]; 0.1% addition to feed): 237.8 ± 8.9 mg/dL
- Total cholesterol ([5]; 0.1% addition to feed): 164.8 ± 4.0 mg/dL
- Triglyceride ([5]; 0.1% addition to feed): 145.4 ± 8.5 mg/dL
- Change in HDL-cholesterol ([5]; 0.1-0.5% addition groups): no significant change
- Free fatty acid ([5]; 0.3% addition to feed): 1.05 ± 0.06 mEq/dl
- HDL-cholesterol ([5]; 0.3% addition to feed): 72.5 ± 7.7 mg/dL
- Phospholipid ([5]; 0.3% addition to feed): 187.0 ± 12.2 mg/dL
- Total cholesterol ([5]; 0.3% addition to feed): 125.5 ± 7.6 mg/dL
- Triglyceride ([5]; 0.3% addition to feed): 78.0 ± 0.9 mg/dL
- Triglyceride as compared to the control group (decrease down to) ([5]; 0.5% addition group): 26%
- Free fatty acid ([5]; 0.5% addition to feed): 0.87 ± 0.05 mEq/dl
- HDL-cholesterol ([5]; 0.5% addition to feed): 61.7 ± 4.3 mg/dL
- Phospholipid ([5]; 0.5% addition to feed): 172.5 ± 8.6 mg/dL
- Total cholesterol ([5]; 0.5% addition to feed): 102.9 ± 6.4 mg/dL
- Triglyceride ([5]; 0.5% addition to feed): 66.8 ± 2.3 mg/dL
- Organ weight changes (livers, pancreases, kidneys, lungs) [6]: not observed
- Amount of intraperitoneal fat relative to non-treated control mice (FIG. 2) ([7]; 0.5% in feed for two weeks): half
- Body fat (subcutaneous fat and intraperitoneal fat) ([7]; 0.5% in feed for two weeks): Remarkable decreases
- Increase in body weight (FIG. 1) ([7]; 0.5% in feed, compared to non-treated control mice): remarkably suppressed
- Body weight gain [7]: 56%
- Intraperitoneal fat [7]: 50%

Compound: CC(C)CCC[C@@H](C)[C@H]1CC[C@H]2[C@@H]3CCC4=CC(=O)CC[C@]4(C)[C@H]3CC[C@]12C [4-Cholesten-3-one, 4-cholesten-3-one]
- Neutral fats (serum), mean ± standard error ([2]; 0.5% in feed, 2 weeks, n=6): 197.7 ± 28.1 mg/dL
- Total cholesterol (serum), mean ± standard error ([2]; 0.5% in feed, 2 weeks, n=6): 99.2 ± 5.8 mg/dL
- Serum metabolite [2]: Cholestanol
- Serum metabolite ([2]; listed as 4-cholesten-3-one): cholestanol
- Serum cholesterol [2]: 62%
- Serum neutral fats [2]: 54%
- Spleens at autopsy [4]: enlargements
- Body weight gain [7]: 72^a %
- Intraperitoneal fat [7]: 74%

Compound: CC[C@H](CC[C@@H](C)[C@H]1CC[C@H]2[C@@H]3CC=C4CC(=O)CC[C@]4(C)[C@H]3CC[C@]12C)C(C)C [5-Stigmasten-3-one]
- Intraperitoneal fat [8]: 745.7 ± 46.7 mg
- Decrease of serum total cholesterol concentration [9]: ~49%
- Decrease of serum triglyceride concentration [9]: ~68%
- Total cholesterol ([9]; mean (n=6) ± standard error): 97.9 ± 3.4 mg/dL
- Triglyceride ([9]; mean (n=6) ± standard error): 82.0 ± 6.7 mg/dL
